This is an account of results in patent US6558694B2, “Zinc chloride unit dose packaging, applicator, and method of use in treating cancer and other skin diseases” (priority 1999, dated 2003).

Series [1] is described as follows: Mixing compatibility of additives with zinc chloride fixative paste. The format is physicochemical. The following applies: for mixing with the zinc chloride fixative paste: additive in low concentration. How it is done:
Podophyllin is a natural plant extract from the dried roots of either Podophyllum peltatum or P. emodi. It is an antimitotic agent used for many years in the treatment of human warts. (Fitzpatrick T B, et al. Dermatology in General Medicine, McGraw-Hill 1999, p. 2724.) Podophyllin is added at a 0.01% concentration, although a wide range of concentrations may be acceptable from 0.001% to 90% or greater, depending on the zinc chloride formulation employed.

The conditions of series [2]: inadvertent extravasation; far greater concentration and dosage than in the paste; tenderness, erythema, skin discoloration, swelling; cited from earlier work.
In another series the test system is HIV. The following applies: cited from earlier work.

As to `O=c1[nH]cc(F)c(=O)[nH]1` [fluorouracil], the “mixing with the zinc chloride fixative paste” value (“mixing” below) in series [1] is “completely compatible and mix fully”.

With `CC(=O)O[C@H]1C(=O)[C@@]2(C)[C@H]([C@H](OC(=O)c3ccccc3)[C@]3(O)C[C@H](OC(=O)[C@H](O)[C@@H](NC(=O)c4ccccc4)c4ccccc4)C(C)=C1C3(C)C)[C@]1(OC(C)=O)CO[C@@H]1C[C@@H]2O` [paclitaxel], the “mixing” value in series [1] was “mixes completely and fully”. Besides, the “paste consistency and viscosity after addition” value in series [1] (paclitaxel in low concentration) is on record as “remains unchanged”. Moreover, in series [2], the local skin reactions result is “mild”.

Turning to `[Cl-].[Cl-].[Zn+2]` [zinc chloride], in the series on HIV, the “inactivation of HIV” value is “inactivated”.

In the case of `NC(N)=O` [urea], in series [1], the “mixing” value was “completely compatible and mix fully”.
